{"source": "paper PMC2769143", "about": "“Variations in IC50 Values with Purity of Mushroom Tyrosinase” (International Journal of Molecular Sciences, 2009)", "key": {"[1]": {"target": "crude mushroom tyrosinase (MT) extract", "assay": "DOPA oxidation (dopachrome, 475 nm) assay with crude MT extract, with 0.1% SDS", "assay_type": "biochemical, White button mushrooms", "experimental": "(§1) White button mushrooms were purchased from local stores and blended in 100 mM sodium phosphate (pH 6.0) containing 1 mM EDTA, 1 mM PMSF, 5 mM ascorbic acid and 1 M sucrose. The homogenates were filtered and stored at −15 °C in small aliquots. Commercial mushroom tyrosinase. Mushroom tyrosinase was dissolved in the above buffer without ascorbic acid at 2 mg dry weight/mL and stored at 5 °C in small aliquots.\n(§2) Each one mL assay contained a final concentration of 100 mM sodium phosphate (pH 6.5) and 2 mM DOPA. Crude, commercial or partially purified tyrosinase was added to initiate the reaction. […] Rates were determined from the linear portion of the absorbance vs. time curves. Crude enzyme was use at a concentration of 0.1 units (8.4 μg protein) per mL in the assay and assayed in the presence of 0.1% SDS. Commercial tyrosinase was used at a concentration of 0.038 units (3.3 μg protein) per mL in the assay. The purified enzyme was used at a concentration of 0.0067 units (0.58 μg protein) per mL in the assay.\n(§3) Various amounts of inhibitors were added into assays to determine a range of inhibitors needed to encompass the IC50 value. Then assays were repeated within this range of inhibitor concentrations. Rates were determined as above. […] For the crude and commercial MT, experiments were repeated at least twice and the average IC50 value reported. Because of the limited amount of purified tyrosinase, not all experiments could be repeated twice. In experiments requiring DMSO to dissolve the inhibitor, control assays contained the assay mixture with DMSO but minus inhibitor. Final DMSO concentrations were 5% or less in the assays."}, "mushroom tyrosinase": {"target": "mushroom tyrosinase", "settings": "cited from earlier work"}, "[2]": {"target": "commercial mushroom tyrosinase (MT) (Agaricus bisporus, UniProt C7FF04)", "sequence (C7FF04 1-392)": "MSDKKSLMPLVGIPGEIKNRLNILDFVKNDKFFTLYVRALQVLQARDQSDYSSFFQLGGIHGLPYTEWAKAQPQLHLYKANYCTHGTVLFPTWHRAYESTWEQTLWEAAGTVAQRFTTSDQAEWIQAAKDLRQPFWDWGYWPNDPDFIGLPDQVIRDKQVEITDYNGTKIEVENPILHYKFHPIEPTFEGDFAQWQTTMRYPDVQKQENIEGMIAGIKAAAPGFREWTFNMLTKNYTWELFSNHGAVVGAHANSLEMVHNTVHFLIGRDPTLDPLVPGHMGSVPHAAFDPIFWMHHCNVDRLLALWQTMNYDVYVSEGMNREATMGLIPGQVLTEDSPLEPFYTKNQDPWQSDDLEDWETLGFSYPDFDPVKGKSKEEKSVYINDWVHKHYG", "sequence (G1K3P4 entry or part of it, further chain)": "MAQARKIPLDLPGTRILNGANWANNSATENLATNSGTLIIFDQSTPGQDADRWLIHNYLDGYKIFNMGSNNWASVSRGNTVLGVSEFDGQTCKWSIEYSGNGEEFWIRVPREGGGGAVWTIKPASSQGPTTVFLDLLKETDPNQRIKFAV", "assay": "DOPA oxidation (dopachrome, 475 nm) assay with commercial MT", "assay_type": "biochemical", "settings": "for IC50: read-out: IC50 Commer. MT", "experimental": "Commercial mushroom tyrosinase was purchased from Worthington Biochemical Corp. (Lakewood, NJ, USA). Substrates and inhibitors were obtained from Sigma-Aldrich (St. Louis, MO, USA). Anisaldehyde was obtained form J.T. Baker Chemical Co. (Phillipsburg, NJ, USA). Dimethyl sulfoxide (DMSO) was reagent grade from Sigma-Aldrich (St. Louis, MO, USA).\nas §1, §2, §3"}, "[3]": {"target": "purified mushroom tyrosinase (MT) (Agaricus bisporus, UniProt C7FF04)", "sequence (C7FF04 1-392)": "as the sequence (C7FF04 1-392) above", "sequence (G1K3P4 entry or part of it, further chain)": "as the sequence (G1K3P4 entry or part of it, further chain) above", "assay": "DOPA oxidation (dopachrome, 475 nm) assay with partially purified commercial MT", "assay_type": "biochemical", "experimental": "as §2, §3"}, "[4]": {"system": "mushroom tyrosinase (crude, commercial and purified MT)", "assay": "DOPA oxidation assay, statements pooled over crude, commercial and purified MT", "assay_type": "biochemical", "experimental": "Each one mL assay contained a final concentration of 100 mM sodium phosphate (pH 6.5) and 2 mM DOPA. Crude, commercial or partially purified tyrosinase was added to initiate the reaction. Oxidation of DOPA into dopachrome was monitored at 475 nm. One unit of activity was defined as 1 μmole dopachrome formed per min per ml enzyme using an extinction coefficient of 3600 M^−1 cm^−1. Rates were determined from the linear portion of the absorbance vs. time curves. Crude enzyme was use at a concentration of 0.1 units (8.4 μg protein) per mL in the assay and assayed in the presence of 0.1% SDS. Commercial tyrosinase was used at a concentration of 0.038 units (3.3 μg protein) per mL in the assay. The purified enzyme was used at a concentration of 0.0067 units (0.58 μg protein) per mL in the assay.\nVarious amounts of inhibitors were added into assays to determine a range of inhibitors needed to encompass the IC50 value. Then assays were repeated within this range of inhibitor concentrations. Rates were determined as above. […] The concentration of inhibitor needed to inhibit 50% of the tyrosinase activity was extrapolated from % activity vs. [inhibitor] curves. For some inhibitors, we also used Statistical Data Analysis Software (SDAS, version 2008A) using an exponential equation to obtain a best fit curve and then to calculate IC50 values. For the crude and commercial MT, experiments were repeated at least twice and the average IC50 value reported. Because of the limited amount of purified tyrosinase, not all experiments could be repeated twice. In experiments requiring DMSO to dissolve the inhibitor, control assays contained the assay mixture with DMSO but minus inhibitor. Final DMSO concentrations were 5% or less in the assays."}}, "note": "Where two headings read alike, the source gives them in different places.", "data": [{"compound": "Cn1cc[nH]c1=S", "note": "[methimazole]", "values": [{"measurement": "IC50", "setting": "[1]; 2 mM DOPA, pH 6.5, 0.1% SDS", "result": 46, "unit": "µM"}, {"measurement": "IC50", "setting": "mushroom tyrosinase; read-out: Reported IC50 Values", "result": 200, "unit": "µM"}]}, {"compound": "CCCCCCc1ccc(O)cc1O", "note": "[4-HR, 4-hexylresorcinol]", "values": [{"measurement": "IC50", "setting": "[1]; 2 mM DOPA, pH 6.5, 0.1% SDS", "result": 5.8, "unit": "µM"}, {"measurement": "IC50", "setting": "mushroom tyrosinase; read-out: Reported IC50 Values", "result": 0.85, "unit": "µM"}]}, {"compound": "COc1ccc(C(=O)O)cc1", "note": "[anisic acid]", "values": [{"measurement": "IC50", "setting": "mushroom tyrosinase; read-out: Reported IC50 value", "result": 680, "unit": "µM"}]}, {"compound": "lysozyme", "values": [{"measurement": "IC50 Commer. MT", "setting": "[2]; 2 mM DOPA, pH 6.5", "result": ">20", "unit": "mg/mL ^h"}, {"measurement": "IC50 Crude MT", "setting": "[1]; 2 mM DOPA, pH 6.5, 0.1% SDS", "result": ">10", "unit": "mg/mL ^g"}, {"measurement": "Reported inhibition of MT", "setting": "mushroom tyrosinase; MT and lysozyme incubated for one hour before assaying", "result": 30, "unit": "%"}, {"measurement": "Reported IC50 value", "setting": "mushroom tyrosinase", "result": 4.6, "unit": "µg/mL"}, {"measurement": "Reported inhibition of MT", "setting": "mushroom tyrosinase; mixing MT with lysozyme just before assaying", "result": 8, "unit": "%"}, {"measurement": "IC50", "setting": "mushroom tyrosinase; read-out: Reported IC50 Values", "result": 0.32, "unit": "µM"}, {"measurement": "IC50 Purified MT", "setting": "[3]; 2 mM DOPA, pH 6.5", "result": ">20", "unit": "mg/mL ^i"}]}, {"compound": "N.N.S.S.[S]=[Mo]=[S]", "note": "[ATTM, ammonium tetrathiomolybdate]", "values": [{"measurement": "IC50", "setting": "[2]; 2 mM DOPA, pH 6.5", "result": 3.3, "unit": "µM"}, {"measurement": "IC50", "setting": "[1]; 2 mM DOPA, pH 6.5, 0.1% SDS", "result": 3.4, "unit": "µM"}, {"measurement": "IC50", "setting": "mushroom tyrosinase; read-out: Reported IC50 Values", "result": 2, "unit": "µM"}]}, {"compound": "Oc1ccc(O)cc1", "note": "[hydroquinone]", "values": [{"measurement": "Effect on commercial MT activity", "setting": "[2]", "result": "activates ^e"}, {"measurement": "Concentration up to which crude MT is activated", "setting": "[1]; 2 mM DOPA", "result": "≤ 100", "unit": "µM"}, {"measurement": "Effect on crude MT activity", "setting": "[1]; 2 mM DOPA", "result": "activates ^d"}, {"measurement": "IC50", "setting": "mushroom tyrosinase; read-out: Reported IC50 Values", "result": 26, "unit": "µM"}, {"measurement": "Effect on purified MT activity", "setting": "[3]", "result": "activates ^f"}]}, {"compound": "CS(C)(=O)=O", "note": "[dimethyl sulfone]", "values": [{"measurement": "Inhibition of commercial MT", "setting": "[2]; to 2 mM", "result": "NI to 2 mM"}, {"measurement": "Inhibition of crude MT", "setting": "[1]; to 2 mM", "result": "NI to 2 mM"}, {"measurement": "Inhibition of tyrosinase", "setting": "[4]; up to 2 mM", "result": "relatively little inhibition"}, {"measurement": "Inhibition of purified MT", "setting": "[3]; to 2 mM", "result": "NI to 2 mM"}]}, {"compound": "O=c1cc(CO)occ1O", "note": "[kojic acid]", "values": [{"measurement": "IC50", "setting": "[1]; 2 mM DOPA, pH 6.5, 0.1% SDS", "result": 36, "unit": "µM"}]}, {"compound": "O=c1ccc2cc(O)c(O)cc2o1", "note": "[esculetin]", "values": [{"measurement": "IC50", "setting": "[1]; 2 mM DOPA, pH 6.5, 0.1% SDS", "result": 70, "unit": "µM"}]}, {"compound": "O=c1cccccc1O", "note": "[tropolone]", "values": [{"measurement": "IC50", "setting": "[1]; 2 mM DOPA, pH 6.5, 0.1% SDS", "result": 0.39, "unit": "µM"}, {"measurement": "IC50", "setting": "mushroom tyrosinase; read-out: Reported IC50 Values", "result": 0.4, "unit": "µM"}]}, {"compound": "O=S(=O)([O-])[O-].[Zn+2]", "note": "[ZnSO4]", "values": [{"measurement": "Inhibition of commercial MT", "setting": "[2]; at 1 mM", "result": "none@1 mM"}, {"measurement": "Inhibition of crude MT", "setting": "[1]; at 1 mM", "result": "none@1 mM"}, {"measurement": "IC50", "setting": "mushroom tyrosinase; assay coupling DOPA oxidation to thymol blue coloration, read-out: Reported IC50 Values", "result": 50, "unit": "µM"}, {"measurement": "Inhibition of MT", "setting": "[4]; concentrations up to 1 mM", "result": "no inhibition"}, {"measurement": "Inhibition of purified MT", "setting": "[3]; at 1 mM", "result": "none@1 mM"}]}, {"compound": "CSC", "note": "[dimethyl sulfide]", "values": [{"measurement": "Inhibition of commercial MT", "setting": "[2]; to 500 μM", "result": "NI to 500 μM"}, {"measurement": "Inhibition of crude MT", "setting": "[1]; to 500 μM", "result": "NI to 500 μM"}, {"measurement": "Inhibition of MT", "setting": "[4]; up to 500 μM, any of the MT samples", "result": "Little to no inhibition"}, {"measurement": "Inhibition of purified MT", "setting": "[3]; to 500 μM", "result": "NI to 500 μM"}]}, {"compound": "COc1ccc(C=O)cc1", "note": "[anisaldehyde]", "values": [{"measurement": "IC50", "setting": "[1]; 2 mM DOPA, pH 6.5, 0.1% SDS", "result": 1000, "unit": "µM"}, {"measurement": "IC50", "setting": "mushroom tyrosinase; read-out: Reported IC50 Values", "result": 160, "unit": "µM"}, {"measurement": "IC50", "setting": "[4]; 2 mM DOPA, read-out: IC50, range between crude, commercial and purified MT", "result": "1 to 1.8", "unit": "mM"}]}, {"compound": "O=C(CCc1ccc(O)cc1)c1c(O)cc(O)cc1O[C@@H]1O[C@H](CO)[C@@H](O)[C@H](O)[C@H]1O", "note": "[phloridzin]", "values": [{"measurement": "IC50", "setting": "[1]; 2 mM DOPA, pH 6.5, 0.1% SDS", "result": 625, "unit": "µM"}, {"measurement": "IC50", "setting": "mushroom tyrosinase; read-out: Reported IC50 Values", "result": 110, "unit": "µM"}]}, {"compound": "[Cl-].[Na+]", "note": "[NaCl]", "values": [{"measurement": "IC50", "setting": "[1]; 2 mM DOPA, pH 6.5, 0.1% SDS", "result": 65000, "unit": "µM"}, {"measurement": "IC50", "setting": "mushroom tyrosinase; DOPA as substrate, read-out: Reported IC50 Values", "result": 25000, "unit": "µM"}]}, {"compound": "4,4’-dihydroxy-biphenyl [biphenol]", "values": [{"measurement": "IC50", "setting": "[2]; 2 mM DOPA, pH 6.5", "result": 10, "unit": "µM"}, {"measurement": "IC50", "setting": "[1]; 2 mM DOPA, pH 6.5, 0.1% SDS", "result": 50, "unit": "µM"}, {"measurement": "IC50", "setting": "mushroom tyrosinase; tyrosine as substrate, read-out: Reported IC50 Values", "result": 1.9, "unit": "µM"}, {"measurement": "Concentration beyond which purified MT activity increases", "setting": "[3]; 2 mM DOPA", "result": "> 100", "unit": "µM"}, {"measurement": "IC50", "setting": "[3]; 2 mM DOPA, pH 6.5", "result": 67, "unit": "µM"}]}]}
